Experimental data taken from ChEMBL document CHEMBL4334467, “Synthesis and SAR Study of Carbamoyl Pyridone Bicycle Derivatives as Potent Inhibitors of Influenza Cap-dependent Endonuclease” (J Med Chem, 2019).
Calls of active or inactive are those of the source. The calls are words filed in the database; no cut-off is given here.

Legend:
[1] = biological target: Polymerase acidic protein (Influenza A virus (A/Puerto Rico/8/1934(H1N1)), UniProt P03433); assay: Inhibition of Influenza A virus (A/WSN/1933(H1N1)) CEN using m7G[5']-ppp-[5'] [m2'-O]GAA UAU(-Cy3) GCAUCACUAGUAAGCUUUGCUCUA(-BHQ2)-3' as substrate measured after 60 mins by fluorescence assay
[2] = test system: Influenza A virus; assay type: functional, organism-based; details: A/WSN/1933(H1N1), MDCK, 72 h
[3] = Metabolic stability in Crj:CD(SD) rat liver microsomes assessed as compound remaining at 2 uM incubated for 30 mins by LC/MS/MS analysis; assay type: ADME, Microsome; details: read-out: Stability
[4] = In vivo total clearance in Sprague-Dawley rat at 0.5 mg/kg, iv administered as single dose after 2 to 360 mins by LC/MS/MS analysis; assay type: ADME, organism-based
[5] = Protein binding in rat serum assessed as unbound fraction after 24 hrs by LC-MS based equilibrium dialysis analysis; assay type: ADME, cell-free
[6] = test system: Influenza A virus; assay type: functional, organism-based; details: A/Puerto Rico/8/1934(H1N1), MDCK, 72 h
[7] = test system: Influenza A virus H3N2; assay type: functional, organism-based; details: A/Victoria/3/1975(H3N2), MDCK, 72 h
[8] = test system: Influenza A virus H3N2; assay type: functional, organism-based; details: A/Hong Kong/8/68, MDCK, 72 h
[9] = test system: Influenza B virus; assay: Antiviral activity against Influenza B virus (B/Hong Kong/05/72) infected in MDCK cells assessed as reduction in virus-induced cytopathic effect incubated for 72 hrs by WST assay; assay type: functional, organism-based; details: B/Hong Kong/05/1972, MDCK
[10] = test system: Influenza B virus; assay: Antiviral activity against Influenza B virus (B/Maryland/1/59) infected in MDCK cells assessed as reduction in virus-induced cytopathic effect incubated for 72 hrs by WST assay; assay type: functional, organism-based
[11] = test system: Influenza A virus; assay: microbe, parasite or virus in culture
Description: Antiviral activity against Influenza A virus

[12] = biological target: Polymerase acidic protein (Influenza A virus (A/Puerto Rico/8/1934(H1N1)), UniProt P03433); assay: Inhibition of Influenza A virus CEN
[13] = test system: Influenza B virus; assay: Antiviral activity against Influenza B virus (B/Maryland/1/59) infected in iv dosed BALB/C mouse administered once daily; assay type: functional
[14] = test system: Influenza B virus; assay: Antiviral activity against Influenza B virus (B/Maryland/1/59) infected in BALB/C mouse assessed as mouse survival at 10 mg/kg, iv administered once daily relative to control; assay type: functional
[15] = test system: Influenza B virus; assay: Antiviral activity against Influenza B virus (B/Maryland/1/59) infected in BALB/C mouse assessed as increase in mouse survival at 0.08 to 2 mg/kg, iv administered once daily; assay type: functional, organism-based
[16] = Cytotoxicity against MDCK cells after 3 days by WST-8 assay; assay type: cell-based, Canis lupus familiaris; details: dog
[17] = test system: Influenza A virus; assay type: functional, organism-based; details: MDCK

CC(C)N1C[C@H](C(c2ccccc2)c2ccccc2)n2ccc(=O)c(O)c2C1=O
IC50 [1]: 0.239 µM | EC50 [2]: 0.0575 µM | remaining at 0.5 h, 2 µM [3]: 78.7% | clearance [4]: 25.3 mL/min/kg | fraction unbound at 24 h [5]: 0.182 | EC50 [6]: 0.194 µM | EC50 [7]: 0.488 µM | EC50 [8]: 0.232 µM | EC50 [9]: 0.1 µM | EC50 [10]: 0.177 µM

COCCN1CN(Cc2ccc(F)cc2)n2cc(C(=O)O)c(=O)c(O)c2C1=O
IC50 [1]: 0.419 µM | EC50 [2]: > 25 µM

COCCN1C[C@H](C(c2ccccc2)c2ccccc2)n2cc(Cl)c(=O)c(O)c2C1=O
EC50 [2]: 0.541 µM

O=c1[nH]c(-c2ccc(F)cc2)c(-c2ccc(-c3nnn[nH]3)cc2)cc1O
EC50 [11]: 11.4 µM

CCOC(=O)c1cn2c(c(O)c1=O)C(=O)N(CCOC)C[C@@H]2C(c1ccccc1)c1ccccc1
IC50 [1]: 0.298 µM | EC50 [2]: 2.53 µM

CN1C[C@H](C(c2ccccc2)c2ccccc2)n2ccc(=O)c(O)c2C1=O
IC50 [1]: 0.0804 µM | EC50 [2]: 0.144 µM | remaining at 0.5 h, 2 µM [3]: 79.9% | clearance [4]: 31.6 mL/min/kg | fraction unbound at 24 h [5]: 0.285

COCCN1C[C@H](C(c2ccccc2)c2ccccc2)n2cc(C)c(=O)c(O)c2C1=O
IC50 [1]: 0.281 µM | EC50 [2]: 2.47 µM

COCCN1CCn2cc(C(=O)O)c(=O)c(O)c2C1=O
IC50 [1]: 68.6 µM

O=C(O)c1cn(CC2(n3ccc4cccnc43)CCCC2)cc(O)c1=O
IC50 [12]: 0.005 µM | EC50 [11]: 0.201 µM

O=c1oc2ccc(-c3ccc(F)cc3)cc2cc1O
IC50 [12]: 0.5 µM

COCCN1C[C@H](CC(C)C)n2cc(C(=O)O)c(=O)c(O)c2C1=O
IC50 [1]: 9.31 µM

COCCN1C[C@H](c2ccccc2)n2cc(C(=O)O)c(=O)c(O)c2C1=O
IC50 [1]: 27.8 µM | EC50 [2]: > 50 µM

O=C(O)/C(O)=C/C(=O)C1(Cc2ccc(Cl)cc2)CCN(Cc2ccccc2)CC1
EC50 [2]: 38.3 µM

COCCN1C[C@@H](Cc2ccccc2)n2cc(C(=O)O)c(=O)c(O)c2C1=O
IC50 [1]: 27.4 µM | EC50 [2]: > 50 µM

COCCN1C[C@H](C(c2ccccc2)c2ccccc2)n2cc(C(=O)O)c(=O)c(O)c2C1=O
IC50 [1]: 0.0478 µM | EC50 [2]: 0.293 µM

COCCN1C[C@H](C(c2ccccc2)c2ccccc2)n2cc(OC)c(=O)c(O)c2C1=O
IC50 [1]: 0.11 µM | EC50 [2]: 1.68 µM

COCCN1C[C@H](CCc2ccccc2)n2cc(C(=O)O)c(=O)c(O)c2C1=O
IC50 [1]: 1.35 µM

CNC(=O)c1cn2c(c(O)c1=O)C(=O)N(CCOC)C[C@@H]2C(c1ccccc1)c1ccccc1
IC50 [1]: 1.59 µM | EC50 [2]: 7.11 µM

CC(C)N1CN(C(c2ccccc2)c2ccccc2)n2ccc(=O)c(O)c2C1=O
IC50 [1]: 0.286 µM | EC50 [2]: 0.0816 µM | remaining at 0.5 h, 2 µM [3]: 86% | clearance [4]: 10.9 mL/min/kg | fraction unbound at 24 h [5]: 0.0377 | EC50 [6]: 0.183 µM | EC50 [7]: 0.829 µM | EC50 [8]: 0.301 µM | EC50 [9]: 0.124 µM | EC50 [10]: 0.176 µM | Activity [13]: Dose-dependent effect | ED50 [13]: 0.89 mg/kg/day | survival at 10 mg/kg [14]: 100% | Activity [15]: inactive | CC50 at 72 h [16]: > 25 µM

COCCN1C[C@H](C(c2ccccc2)c2ccccc2)n2ccc(=O)c(O)c2C1=O
IC50 [1]: 0.115 µM | EC50 [2]: 0.134 µM | remaining at 0.5 h, 2 µM [3]: 79.7% | clearance [4]: 42.2 mL/min/kg | fraction unbound at 24 h [5]: 0.297

COCCN1CN(C(c2ccccc2)c2ccccc2)n2ccc(=O)c(O)c2C1=O
IC50 [1]: 0.103 µM | EC50 [2]: 0.0752 µM | remaining at 0.5 h, 2 µM [3]: 83.4% | clearance [4]: 47.4 mL/min/kg | fraction unbound at 24 h [5]: 0.129

COCCN1C[C@H](Cc2ccccc2)n2cc(C(=O)O)c(=O)c(O)c2C1=O
IC50 [1]: 0.241 µM | EC50 [2]: > 50 µM

O=C(NCCc1ccc(O)c(O)c1)c1cc2cc(O)c(O)cc2[nH]1
IC50 [12]: 0.94 µM | EC50 [11]: 16 µM

COCCN1CN(C(c2ccccc2)c2ccccc2)n2cc(C(=O)O)c(=O)c(O)c2C1=O
IC50 [1]: 0.116 µM | EC50 [2]: 1.47 µM

COCCN1C[C@H](C(c2ccccc2)c2ccccc2)n2cc(N)c(=O)c(O)c2C1=O
IC50 [1]: 0.358 µM | EC50 [2]: 3.86 µM

O=C1N/C(=N\N=C2\C(=O)Nc3ccccc32)S/C1=C1\C(=O)Nc2ccccc21
EC50 [17]: 0.8 µM

COCCN1C[C@H](C(C)C)n2cc(C(=O)O)c(=O)c(O)c2C1=O
IC50 [1]: 2.99 µM

O=C1c2c(O)c(=O)ccn2N(C(c2ccccc2)c2ccccc2)CN1Cc1ccco1
IC50 [1]: 0.588 µM | EC50 [2]: 0.478 µM | remaining at 0.5 h, 2 µM [3]: 50.6% | clearance [4]: 42.6 mL/min/kg | fraction unbound at 24 h [5]: 0.0217

CN1CN(C(c2ccccc2)c2ccccc2)n2ccc(=O)c(O)c2C1=O
IC50 [1]: 0.164 µM | EC50 [2]: 0.0816 µM | remaining at 0.5 h, 2 µM [3]: 92.1% | clearance [4]: 18.8 mL/min/kg | fraction unbound at 24 h [5]: 0.07
